Experiments:
BTK = BTK (Homo sapiens, UniProt Q06187); assay: In vitro kinase assay (biochemical), BTK; settings: for IC50: in vitro kinase assay; for selectivity for BTK over BLK (BTK/BLK selectivity): ratio of BLK and BTK IC50
HER2 = HER2 (Homo sapiens, UniProt P04626); assay: In vitro kinase assay, HER2; type: biochemical
BLK = BLK (Homo sapiens, UniProt P51451); assay: In vitro kinase assay, BLK; type: biochemical
ITK = biological target: T1, ITK (Homo sapiens, UniProt Q08881); assay: In vitro kinase assay, ITK; type: biochemical
T1 sequence (Q08881 1-620): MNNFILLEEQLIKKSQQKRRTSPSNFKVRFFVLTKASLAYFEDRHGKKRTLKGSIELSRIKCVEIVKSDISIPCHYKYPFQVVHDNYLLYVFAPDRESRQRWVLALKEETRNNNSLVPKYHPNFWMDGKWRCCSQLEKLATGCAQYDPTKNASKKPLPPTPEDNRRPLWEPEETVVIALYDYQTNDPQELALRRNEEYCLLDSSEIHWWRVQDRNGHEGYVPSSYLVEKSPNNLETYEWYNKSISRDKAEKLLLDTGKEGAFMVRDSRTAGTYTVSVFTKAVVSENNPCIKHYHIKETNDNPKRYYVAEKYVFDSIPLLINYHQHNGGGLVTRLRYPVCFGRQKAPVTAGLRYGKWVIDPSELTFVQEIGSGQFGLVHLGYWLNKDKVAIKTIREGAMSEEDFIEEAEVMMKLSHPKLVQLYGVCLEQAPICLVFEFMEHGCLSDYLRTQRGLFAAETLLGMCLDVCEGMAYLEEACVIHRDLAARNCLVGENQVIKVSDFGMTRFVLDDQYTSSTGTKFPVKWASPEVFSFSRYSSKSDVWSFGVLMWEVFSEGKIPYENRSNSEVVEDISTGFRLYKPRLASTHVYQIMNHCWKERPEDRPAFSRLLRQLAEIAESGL

Chain of BTK (Q06187 whole entry): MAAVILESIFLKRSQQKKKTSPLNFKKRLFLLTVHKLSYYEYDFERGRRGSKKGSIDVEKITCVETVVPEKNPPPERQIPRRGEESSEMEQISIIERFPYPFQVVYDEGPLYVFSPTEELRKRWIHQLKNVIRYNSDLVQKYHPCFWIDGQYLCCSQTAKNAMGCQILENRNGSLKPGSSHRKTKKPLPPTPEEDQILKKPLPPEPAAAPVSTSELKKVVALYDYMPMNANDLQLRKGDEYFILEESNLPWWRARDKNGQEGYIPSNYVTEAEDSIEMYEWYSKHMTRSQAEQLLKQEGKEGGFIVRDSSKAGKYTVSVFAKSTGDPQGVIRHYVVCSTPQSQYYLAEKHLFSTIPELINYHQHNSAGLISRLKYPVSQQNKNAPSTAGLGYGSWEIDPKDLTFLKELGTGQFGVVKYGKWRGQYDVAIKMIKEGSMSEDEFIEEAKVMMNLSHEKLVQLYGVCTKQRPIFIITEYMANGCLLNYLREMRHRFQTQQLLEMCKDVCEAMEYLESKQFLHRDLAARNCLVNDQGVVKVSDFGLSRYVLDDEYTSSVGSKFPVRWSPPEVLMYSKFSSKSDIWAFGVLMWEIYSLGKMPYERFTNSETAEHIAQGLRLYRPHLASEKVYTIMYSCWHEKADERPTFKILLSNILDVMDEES
Chain of BLK (P51451 whole entry): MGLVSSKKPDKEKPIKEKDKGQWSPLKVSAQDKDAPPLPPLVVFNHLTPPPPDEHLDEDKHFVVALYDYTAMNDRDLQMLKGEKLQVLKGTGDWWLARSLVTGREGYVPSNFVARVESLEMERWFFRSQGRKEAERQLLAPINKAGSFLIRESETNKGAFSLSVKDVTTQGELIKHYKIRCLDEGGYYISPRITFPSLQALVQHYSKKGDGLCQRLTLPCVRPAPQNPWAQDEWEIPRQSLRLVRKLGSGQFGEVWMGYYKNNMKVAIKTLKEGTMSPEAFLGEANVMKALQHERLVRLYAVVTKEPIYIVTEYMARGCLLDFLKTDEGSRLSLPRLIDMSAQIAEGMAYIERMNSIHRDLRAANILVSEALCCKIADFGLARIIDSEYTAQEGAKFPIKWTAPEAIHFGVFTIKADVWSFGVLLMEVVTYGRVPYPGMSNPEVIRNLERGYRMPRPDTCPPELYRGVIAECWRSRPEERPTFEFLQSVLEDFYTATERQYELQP
Chain of HER2 (P04626 23-1255): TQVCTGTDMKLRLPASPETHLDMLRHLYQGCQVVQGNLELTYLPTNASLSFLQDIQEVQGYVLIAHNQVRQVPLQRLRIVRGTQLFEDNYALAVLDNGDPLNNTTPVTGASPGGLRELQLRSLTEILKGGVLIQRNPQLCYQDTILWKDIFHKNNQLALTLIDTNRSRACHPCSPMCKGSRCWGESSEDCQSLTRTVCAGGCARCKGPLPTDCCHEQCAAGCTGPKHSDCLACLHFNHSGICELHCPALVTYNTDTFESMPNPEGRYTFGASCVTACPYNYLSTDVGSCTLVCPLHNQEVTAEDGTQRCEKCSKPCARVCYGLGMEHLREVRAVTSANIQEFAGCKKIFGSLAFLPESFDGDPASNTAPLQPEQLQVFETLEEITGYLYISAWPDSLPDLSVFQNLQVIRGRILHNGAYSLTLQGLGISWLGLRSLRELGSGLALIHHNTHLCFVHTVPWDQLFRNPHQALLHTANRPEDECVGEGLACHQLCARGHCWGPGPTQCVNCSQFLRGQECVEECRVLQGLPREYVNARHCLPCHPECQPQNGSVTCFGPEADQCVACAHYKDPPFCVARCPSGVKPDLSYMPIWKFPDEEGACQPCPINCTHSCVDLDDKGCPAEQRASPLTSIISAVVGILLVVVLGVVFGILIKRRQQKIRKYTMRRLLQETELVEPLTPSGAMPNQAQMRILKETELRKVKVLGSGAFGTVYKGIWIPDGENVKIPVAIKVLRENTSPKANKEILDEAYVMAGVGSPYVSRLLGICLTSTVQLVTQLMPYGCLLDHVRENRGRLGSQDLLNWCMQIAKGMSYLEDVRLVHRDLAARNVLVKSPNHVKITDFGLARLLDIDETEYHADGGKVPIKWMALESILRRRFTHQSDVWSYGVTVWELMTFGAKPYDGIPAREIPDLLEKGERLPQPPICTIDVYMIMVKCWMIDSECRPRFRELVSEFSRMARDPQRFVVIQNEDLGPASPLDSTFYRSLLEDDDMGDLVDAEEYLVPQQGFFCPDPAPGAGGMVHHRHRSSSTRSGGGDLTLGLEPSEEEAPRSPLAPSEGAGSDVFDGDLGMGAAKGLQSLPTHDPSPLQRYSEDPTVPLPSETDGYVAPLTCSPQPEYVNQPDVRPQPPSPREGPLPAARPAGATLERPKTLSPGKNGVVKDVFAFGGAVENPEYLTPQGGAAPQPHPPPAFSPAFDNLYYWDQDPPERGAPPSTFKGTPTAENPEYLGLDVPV

IC50 (BTK) [µM] | IC50 (HER2) [µM] | IC50 (BLK) [µM] | IC50 (ITK) [µM] | improvement in affinity/potency towards BTK over the diastereomer (Ra, R) / (Ra)-3.1 (BTK; fold, BTK IC50 425 nM vs 3307 nM) [×] | selectivity for BTK over BLK (BTK/BLK selectivity) (BTK) | SMILES
0.444 |  | 0.451 |  |  |  | C=CC(=O)N1CCC[C@H](n2c(C)c(-c3ccc(Oc4ccccc4)cc3)c3c(N)ncnc32)C1 [3.3]
0.0027 |  | 0.0091 |  |  |  | C=CC(=O)N1CCC[C@@H](n2cc(-c3ccc(Oc4ccccc4)cc3)c3c(N)ncnc32)C1 [3.4]
0.0173 |  | 0.0559 |  |  |  | C=CC(=O)N1CCC[C@H](n2cc(-c3ccc(Oc4ccccc4)cc3)c3c(N)ncnc32)C1 [3.5]
0.0064 |  | 0.014 |  |  | about 2 × | C=CC(=O)N1CCC[C@@H](n2cc(-c3ccc(Oc4ccccc4)cc3C)c3c(N)ncnc32)C1 [3.6]
0.0055 |  | 0.0084 |  |  |  | C=CC(=O)N1CCC[C@@H](n2nc(-c3ccc(Oc4ccccc4)cc3C)c3c(N)ncnc32)C1 [3.7]
0.0374 |  | 0.174 |  |  |  | C=CC(=O)N1CCCC(n2nc(-c3c(C)cc(Oc4ccccc4)cc3C)c3c(N)ncnc32)C1 (stereo not shown) [3.8]
0.00112 |  | 0.0324 |  |  | 30 × | C=CC(=O)N1CCCC(n2nc(-c3ccc(C(=O)Nc4ccccn4)cc3C)c3c(N)ncnc32)C1 (stereo not shown) [3.11]

Further lines, the compound ahead of its results:

SMILES | IC50 (BTK) [µM] | IC50 (HER2) [µM] | IC50 (BLK) [µM] | IC50 (ITK) [µM] | improvement in affinity/potency towards BTK over the diastereomer (Ra, R) / (Ra)-3.1 (BTK; fold, BTK IC50 425 nM vs 3307 nM) [×] | selectivity for BTK over BLK (BTK/BLK selectivity) (BTK)
C=CC(=O)N1CCC[C@@H](n2cc(-c3ccc(Oc4ccccc4)cc3)c3c(N)ncnc32)C1 (racemic) [Rac] | 0.00047 | 0.451 | 0.00029 |  |  | 
C=CC(=O)N1CCC[C@@H](n2c(C)c(-c3ccc(Oc4ccccc4)cc3C)c3c(N)ncnc32)C1 (single isomer, unassigned) [(Ra)-3.1] | 3.31 | > 10 | 1.81 | > 10 |  | 
C=CC(=O)N1CCC[C@H](n2c(C)c(-c3ccc(Oc4ccccc4)cc3C)c3c(N)ncnc32)C1 (single isomer, unassigned) [(Ra)-3.2] | 0.425 | > 10 | 0.187 | > 10 | 10 | 
C=CC(=O)N1CCCC(n2c(C)c(-c3ccc(C(=O)Nc4ccccn4)cc3C)c3c(N)ncnc32)C1 (single isomer, unassigned) [(Ra)-3.10] | 0.0242 |  | 0.128 |  |  | 
C=CC(=O)N1CCC[C@@H](n2c(C)c(-c3ccc(Oc4ccccc4)cc3C)c3c(N)ncnc32)C1 (single isomer, unassigned) [(Sa)-3.1] | > 10 | > 10 | 9.96 | > 10 |  | 
C=CC(=O)N1CCC[C@H](n2c(C)c(-c3ccc(Oc4ccccc4)cc3C)c3c(N)ncnc32)C1 (single isomer, unassigned) [(Sa)-3.2] | 3.92 | > 10 | 1.73 | > 10 |  | 
C=CC(=O)N1CCCC(n2c(C)c(-c3ccc(C(=O)Nc4ccccn4)cc3C)c3c(N)ncnc32)C1 (single isomer, unassigned) [(Sa)-3.10] | 0.0217 |  | 0.0904 |  |  | 
